The target of this assay is T1, follicle stimulating hormone receptor (FSHR) (Homo sapiens, UniProt P23945).
T1 sequence (P23945 18-695): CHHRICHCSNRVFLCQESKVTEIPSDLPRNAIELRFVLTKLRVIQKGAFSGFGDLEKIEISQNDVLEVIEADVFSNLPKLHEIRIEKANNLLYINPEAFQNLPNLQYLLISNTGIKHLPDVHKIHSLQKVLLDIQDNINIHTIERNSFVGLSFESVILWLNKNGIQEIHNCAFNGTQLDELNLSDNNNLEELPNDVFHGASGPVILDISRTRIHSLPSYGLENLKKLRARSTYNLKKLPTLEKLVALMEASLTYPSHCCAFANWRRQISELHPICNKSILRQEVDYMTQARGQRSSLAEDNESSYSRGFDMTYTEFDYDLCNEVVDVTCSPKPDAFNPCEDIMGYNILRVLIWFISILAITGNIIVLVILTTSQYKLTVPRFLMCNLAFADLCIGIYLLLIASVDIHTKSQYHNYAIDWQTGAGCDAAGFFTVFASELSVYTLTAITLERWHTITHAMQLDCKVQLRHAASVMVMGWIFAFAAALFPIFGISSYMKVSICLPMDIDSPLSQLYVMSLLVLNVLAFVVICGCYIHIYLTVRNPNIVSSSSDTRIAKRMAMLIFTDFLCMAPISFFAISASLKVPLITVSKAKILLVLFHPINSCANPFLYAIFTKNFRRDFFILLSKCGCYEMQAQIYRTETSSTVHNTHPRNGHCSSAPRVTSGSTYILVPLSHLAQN
As to the kind of experiment: isothermal titration calorimetry (Nano ITC, […] BPS into […] FSHR, sequential two-site model). As to conditions: read-out: Value for specific binding site.

Take `O=S(=O)(c1ccc(O)cc1)c1ccc(O)cc1` [BPS, bisphenol S]: the Kd turned out to be 183 µM.

Source of the values: PMC11237073, “Bisphenol S causes excessive estrogen synthesis by activating FSHR and the downstream cAMP/PKA signaling pathway” (Communications Biology, 2024).
